Molecular target: T1, MET kinase (Homo sapiens, UniProt P08581)
T1 construct: Sf9 insect cell culture expressing the kinase domain of human Met; 6x Histidine tag (TEV-cleavable) (cleaved yes); made in house; host or cells: Sf9 insect cells
Test: Met Bioassay (luminescence-based enzyme assay, Kinase-Glo)
Type: biochemical
Details: 10 μM ATP
From the text: In addition to the c-Abl PK/LDH coupled assay (above), homogeneous luminescence-based inhibitor screening assays were developed for c-Abl, MET, AurA, and PDK1 kinases (among others). Each of these assays made use of an ATP depletion assay (Kinase-Glo™, Promega Corporation, Madison, Wis.) to quantitate kinase activity. The Kinase-Glo™ format uses a thermostable luciferase to generate luminescent signal from ATP remaining in solution following the kinase reaction. The luminescent signal is inversely correlated with the amount of kinase activity.
Materials: Poly Glu-Tyr (4:1) substrate (Sigma Cat# P-0275), ATP (Sigma Cat#A-3377, FW=551), HEPES buffer, pH 7.5, Bovine serum albumin (BSA) (Roche 92423420), MgCl2, Staurosporine (Streptomyces sp. Sigma Cat#85660-1MG), white Costar 384-well flat-bottom plate (VWR Cat#29444-088). MET kinase (see below), Kinase-Glo™ (Promega Cat#V6712).
Stock Solutions: 10 mg/ml poly Glu-Tyr in water, stored at −20° C.; 100 mM HEPES buffer, pH 7.5 (5 ml 1M stock+45 ml miliQH2O); 10 mM ATP (5.51 mg/ml in dH2O) stored at −20° C. (diluted 50 μl into total of 10 ml miliQH2O daily=50 μM ATP working stock); 1% BSA (1 g BSA in 100 ml 0.1M HEPES, pH 7.5, stored at −20° C.), 100 mM MgCl2; 200 μM Staurosporine, 2× Kinase-Glo™ reagent (made fresh or stored at −20° C.).
Standard Assay Setup for 384-well format (20 μl kinase reaction, 40 μl detection reaction): 10 mM MgCl2; 0.3 mg/ml poly Glu-Tyr; 0.1% BSA; 1 μl test compound (in DMSO); 0.4 μg/ml MET kinase; 10 μM ATP; 100 mM HEPES buffer. Positive controls contained DMSO with no test compound. Negative controls contained 10 μM staurosporine. The kinase reactions were initiated at time t=0 by the addition of ATP. Kinase reactions were incubated at 21° C. for 60 min, then 20 μl of Kinase-Glo™ reagent were added to each well to quench the kinase reaction and initiate the luminescence reaction. After a 20 min incubation at 21° C., the luminescence was detected in a plate-reading luminometer.
The cell pellets produced from half of a 12 L Sf9 insect cell culture expressing the kinase domain of human Met were resuspended in a buffer containing 50 mM Tris-HCl pH 7.7 and 250 mM NaCl, in a volume of approximately 40 ml per 1 L of original culture. One tablet of Roche Complete, EDTA-free protease inhibitor cocktail (Cat# 1873580) was added per 1 L of original culture. The suspension was stirred for 1 hour at 4° C. Debris was removed by centrifugation for 30 minutes at 39,800×g at 4° C. The supernatant was decanted into a 500 ml beaker and 10 ml of 50% slurry of Qiagen Ni-NTA Agarose (Cat# 30250) that had been pre-equilibrated in 50 mM Tris-HCl pH 7.8, 50 mM NaCl, 10% Glycerol, 10 mM Imidazole, and 10 mM Methionine, were added and stirred for 30 minutes at 4° C. The sample was then poured into a drip column at 4° C. and washed with 10 column volumes of 50 mM Tris-HCl pH 7.8, 500 mM NaCl, 10% Glycerol, 10 mM Imidazole, and 10 mM Methionine. The protein was eluted using a step gradient with two column volumes each of the same buffer containing 50 mM, 200 mM, and 500 mM Imidazole, sequentially. The 6× Histidine tag was cleaved overnight using 40 units of TEV protease (Invitrogen Cat#10127017) per 1 mg of protein while dialyzing in 50 mM Tris-HCl pH 7.8, 500 mM NaCl, 10% Glycerol, 10 mM Imidazole, and 10 mM Methionine at 4° C. The 6× Histidine tag was removed by passing the sample over a Pharmacia 5 ml IMAC column (Cat# 17-0409-01) charged with Nickel and equilibrated in 50 mM Tris-HCl pH 7.8, 500 mM NaCl, 10% Glycerol, 10 mM Imidazole, and 10 mM Methionine. The cleaved protein bound to the Nickel column at a low affinity and was eluted with a step gradient. The step gradient was run with 15% and then 80% of the B-side (A-side=50 mM Tris-HCl pH 7.8, 500 mM NaCl, 10% Glycerol, 10 mM Imidazole, and 10 mM Methionine; B-side=50 mM Tris-HCl pH 7.8, 500 mM NaCl, 10% Glycerol, 500 mM Imidazole, and 10 mM Methionine) for 4 column volumes each. […]

T1 sequence (P08581 1078-1345 limits assumed): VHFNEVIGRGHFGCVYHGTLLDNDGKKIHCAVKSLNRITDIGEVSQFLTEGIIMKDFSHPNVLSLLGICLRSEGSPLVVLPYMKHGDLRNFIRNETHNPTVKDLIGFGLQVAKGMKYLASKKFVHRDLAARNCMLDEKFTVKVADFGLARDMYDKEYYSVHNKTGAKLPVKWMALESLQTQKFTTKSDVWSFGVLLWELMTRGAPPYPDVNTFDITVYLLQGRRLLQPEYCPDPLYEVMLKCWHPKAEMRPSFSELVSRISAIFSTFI

| SMILES | IC50 |
| --- | --- |
| COc1ccc(-c2cnc3[nH]cc(-c4ccc(N)nc4)c3c2)cc1OC [AE56] | < 1 µM |
| COCCNc1ccc(-c2c[nH]c3ncc(-c4ccc(OC)c(OC)c4)cc23)cn1 [AE57] | 1 to 5 µM |
